Source: US20040198673A1, “Composition for epigallocatechin gallate” (priority 2001, published 2004)

Experiment: Agway test of powder flowability (glass funnel, 11-mm opening)
Type: physicochemical
Conditions: 100 g, 11-mm funnel opening
Protocol: Granulated EGCG was compared with EGCG powder (the starting material for granulation) for powder flowability using the Agway test. In that test, flowability is determined by placing 100 gram of the granules in a glass funnel with a 11-mm opening, which is sealed temporarily. The measurement is started by releasing the seal. Flowability is determined as the time for the entire powder to flow through the funnel in seconds per 100 g of granule.

(−)-epigallocatechin gallate [EGCG powder]
Powder flowability (result in words): did not flow
